Test results from US20070066587A1, “Substituted azetidine compounds, their preparation and use as medicaments” (LABORATORIOS DEL DR. ESTEVE S.A, priority 2004, published 2007).

Experiments:
Assay type in all cases: in vivo
Male NMRI mice [1] = test: Mouse tetrad model, sedation, agonistic effect; settings: 5 mg/kg i.v., 20 minutes after injection
Source text: (§1) Substances with affinity for cannabinoid receptors are known to produce a wide range of pharmacological effects. It is also known that intravenous administration of a substance with affinity for cannabinoid receptors in mice produces analgesia, hypothermia, sedation and catalepsy. Individually, none of these effects can be considered as proof that a tested substance has affinity for cannabinoid-receptors, since all of these effects are common for various classes of centrally active agents. However, substances, which show all of these effects, i.e. substances that are active in this so-called tetrad model are considered to have affinity for the cannabinoid receptors. It has further been shown that cannabinoid receptor antagonists are higly effective in blocking the effects of a cannabinoid agonist in the mouse tetrad model.
(§2) The tetrad model is described, for example, in the publication of A. C. Howlett et al, International Union of Pharmacology XXVII. Classification of Cannabinoid Receptors, Pharmacol Rev 54, 161-202, 2002 and David R. Compton et al., “In-vivo Characterization of a Specific Cannabinoid Receptor Antagonist (SR141716A): Inhibition of Tetrahydrocannbinol-induced Responses and Apparent Agonist Activity”, J. Pharmacol. Exp. Ther. 277 , 2, 586-594, 1996. The corresponding parts of the description are hereby incorporated by reference.
(§3) Male NMRI mice with a weight of 20-30 g (Harlan, Barcelona, Spain) are used in all of the following experiments.
(§4) Before testing in the behavioral procedures given below, mice are acclimatized to the experimental setting. Pre-Treatment control values are determined for analgesia hot plate latency (in seconds), rectal temperature, sedation and catalepsy.
(§5) In order to determine the agonistic activty of the substance to be tested, the mice are injected intravenously with the substance to be tested or the vehicle alone. 15 minutes after injection, latency in hot plate analgesia is measured. Rectal temperature, sedation and catalepsy are measured 20 minutes after injection.
Determination of Sedation and Ataxia
Sedation and ataxia is determined according to the method described in Desmet L. K. C. et al. “Anticonvulsive properties of Cinarizine and Flunarizine in Rats and Mice”, Arzneim.-Forsch. (Frug Res) 25, 9, 1975. The respective description is hereby incorporated by reference and forms part of the present disclosure.
The chosen scoring system is
2: obvious calmness and quiet;
prior to as well as after treatment.
(§6) The percentage of sedation is determined according to the formula: % of sedation=arithmetic mean/3×100

Male NMRI mice [2] = test: Mouse tetrad model, hot plate analgesia, agonistic effect; settings: 5 mg/kg i.v., 15 minutes after injection
Source text: as §1
(§7) The tetrad model is described, for example, in the publication of A. C. Howlett et al, International Union of Pharmacology XXVII. […]
as §4, §5
The hot plate analgesia is determined according to the method described in Woolfe D. et al. “The evaluation of analgesic action of pethidine hydrochloride (Demerol)”, J. Pharmacol. Exp. Ther. 80, 300-307, 1944. […]
The mice are placed on a hot plate (Harvard Analgesimeter) at 55±0.5° C. until they show a painful sensation by licking their paws or jumping and the time for these sensations to occur is recorded. This reading is considered the basal value (B). […]
The degree of analgesia is calculated from the formula: % MPE of Analgesia=(PT-B)/(PC-B)×100 MPE=Maximum possible effect.

Male NMRI mice [3] = test: Mouse tetrad model, hypothermia, agonistic effect; settings: 5 mg/kg i.v., 20 minutes after injection
Source text: as §1, §2, §3, §4, §5
Hypothermia is determined according to the method described in David R. Compton et al. “In-vivo Characterization of a Specific Cannabinoid Receptor Antagonist (SR141716A) Inhibition of Tetrahydrocannbinol-induced Responses and Apparent Agonist Activity”, J. Pharmacol Exp Ther. 277, 2, 586-594, 1996. The respective description is hereby incorporated by reference and forms part of the present disclosure.
The base-line rectal temperatures are determined with a thermometer (Yello Springs Instruments Co., Panlabs) and a thermistor probe inserted to 25 mm before the administration of the substance to be tested. Rectal temperature is again measured 20 minutes after the administration of the substances to be tested. The temperature difference is calculated for each animal, whereby differences of ≧−2° C. are considered to represent activity.

Male NMRI mice [4] = test: Mouse tetrad model, hypothermia, antagonistic effect against Win 55212-2; settings: 5 mg/kg i.v. prior to Win 55212-2 1.25 mg/kg i.v.
Source text: as §1, §7, §4
(§8) In order to determine the antagonistic activity the identical procedure is used as for the determination of the agonistic effects, but with the difference that the substance to be evaluated for its antagonistic activity is injectected 5 minutes before the intravenous injection of 1.25 mg/kg Win-55,212 a known cannabinoid-receptor agonist.
Hypothermia is determined according to the method described in David R. Compton et al. “In-vivo Characterization of a Specific Cannabinoid Receptor Antagonist (SR141716A) Inhibition of Tetrahydrocannbinol-induced Responses and Apparent Agonist Activity”, J. Pharmacol Exp Ther. 277, 2, 586-594, 1996. […]
The base-line rectal temperatures are determined with a thermometer (Yello Springs Instruments Co., Panlabs) and a thermistor probe inserted to 25 mm before the administration of the substance to be tested. […]

Male NMRI mice [5] = test: Mouse tetrad model, catalepsy, agonistic effect; settings: 5 mg/kg i.v., 20 minutes after injection
Source text: as §1, §2, §3, §4, §5
Catalepsy is determined according to the method described in Alpermann H. G. et al. “Pharmacological effets of Hoe 249: A new potential antidepressant”, Drugs Dev. Res. 25, 267-282. 1992. The respective description is hereby incorporated by reference and forms part of the present disclosure.
The cataleptic effect of the substance to be tested is evaluated according to the duration of catalepsy, whereby the animals are placed head downwards with their kinlegs upon the top of the wooden block.
The chosen scoring system is:
The percentage of catalepsy is determined according ot the following formula: % Catalepsy=arithmetic mean/6×100

Male NMRI mice [6] = test: Mouse tetrad model, sedation, antagonistic effect against Win 55212-2; settings: 5 mg/kg i.v. prior to Win 55212-2 1.25 mg/kg i.v.
Source text: as §1, with “It has further been shown that cannabinoid receptor antagonists are higly effective in blocking the effects of a cannabinoid agonist in the mouse tetrad model.” left out
as §4
as §8, with “agonist. […]” for “agonist.”
as §6

## C[C@@H]1[C@@H](OS(=O)(=O)c2ccc(F)cc2)CN1C(c1ccc(Cl)cc1)c1ccc(Cl)cc1 (relative stereo) [Example 1, 4-Fluoro-benzenesulfonic acid 1-[trans-bis-(4-chloro-phenyl)-methyl]-2-methyl-azetidin-3-yl ester]
Male NMRI mice [1]
  Agonistic effect D: Sedation: 0
Male NMRI mice [2]
  Agonistic effect A: Hot-Plate test: 5
Male NMRI mice [3]
  Agonistic effect B: Hypothermia: 0
Male NMRI mice [4]
  Antagonistic Effect B: Hypothermia: 100
Male NMRI mice [5]
  Agonistic effect C: Catalepsy: 0
Male NMRI mice [6]
  Antagonistic Effect D: Sedation: 20

## C[C@@H]1[C@@H](NS(=O)(=O)c2ccc(S(C)(=O)=O)cc2)CN1C(c1ccc(Cl)cc1)c1ccc(Cl)cc1 (relative stereo) [Example 14, N-{trans-1-[Bis-(4-chloro-phenyl)-methyl]-2-methyl-azetidin-3-yl}-4-methylsulfonyl-benzenesulfonamide]
Male NMRI mice [1]
  Agonistic effect D: Sedation: 0
Male NMRI mice [3]
  Agonistic effect B: Hypothermia: 0
Male NMRI mice [5]
  Agonistic effect C: Catalepsy: 0
Male NMRI mice [6]
  Antagonistic Effect D: Sedation: 9

## C[C@@H]1[C@@H](NS(=O)(=O)c2cccc3nsnc23)CN1C(c1ccc(Cl)cc1)c1ccc(Cl)cc1 (relative stereo) [Example 15, 2,1,3-Benzothiadiazole-4-sulfonic acid {trans-1-[bis-(4-chloro-phenyl)-methyl]-2-methyl-azetidin-3-yl}-amide]
Male NMRI mice [1]
  Agonistic effect D: Sedation: 0
Male NMRI mice [3]
  Agonistic effect B: Hypothermia: 0
Male NMRI mice [4]
  Antagonistic Effect B: Hypothermia: 100
Male NMRI mice [5]
  Agonistic effect C: Catalepsy: 0

## C[C@H]1[C@H](NS(=O)(=O)c2ccc(F)cc2)CN1C(c1ccc(Cl)cc1)c1ccc(Cl)cc1 [Example 5, N-{(2S,3R)-1-[Bis-(4-chloro-phenyl)-methyl]-2-methyl-azetidin-3-yl}-4-fluoro-benzenesulfonamide]
Male NMRI mice [1]
  Agonistic effect D: Sedation: 0
Male NMRI mice [2]
  Agonistic effect A: Hot-Plate test: 2
Male NMRI mice [3]
  Agonistic effect B: Hypothermia: 0
Male NMRI mice [4]
  Antagonistic Effect B: Hypothermia: 100
Male NMRI mice [5]
  Agonistic effect C: Catalepsy: 0

## C[C@H]1[C@H](NS(=O)(=O)c2cccs2)CN1C(c1ccc(Cl)cc1)c1ccc(Cl)cc1 [Example 6, Thiophene-2-sulfonic acid {(2S,3R)-1-[bis-(4-chloro-phenyl)-methyl]-2-methyl-azetidin-3-yl}-amide]
Male NMRI mice [1]
  Agonistic effect D: Sedation: 0
Male NMRI mice [2]
  Agonistic effect A: Hot-Plate test: 0
Male NMRI mice [3]
  Agonistic effect B: Hypothermia: 0
Male NMRI mice [5]
  Agonistic effect C: Catalepsy: 0
